From the supplement of paper PMC8671470
± gives the standard deviation of the averaged measurements.

Assays:
Settings in all cases: 72 h
ML-2 [1] = tested on: ML-2
Method in brief: (§1)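 For the IC50, dose–response curves were fitted with a log-logistic model. The data came from fifteen myeloid leukaemia cell lines grown in RPMI 1640 at densities in the linear growth range and incubated in 384-well plates for 72 h at 37 °C under 5% CO2. Doses were five tenfold steps from 1 to 10,000 nM in duplicate, and luminescent ATP viability was normalised to vehicle and to a positive control at 10 µM before four-parameter fitting.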

K-562 [2] = tested on: K-562
Method in brief: as §1

THP-1 = tested on: THP-1
Method in brief: as §1

Mono-Mac-6 [3] = tested on: Mono-Mac-6
Method in brief: as §1

HEL [4] = tested on: HEL
Method in brief: as §1

NOMO-1 = tested on: NOMO-1
Method in brief: as §1

HL-60 [5] = tested on: HL-60
Method in brief: as §1

LAMA-84 [6] = tested on: LAMA-84
Method in brief: as §1

KCL-22 [7] = tested on: KCL-22
Method in brief: as §1

KG-1 [8] = tested on: KG-1
Method in brief: as §1

SHI-1 [9] = tested on: SHI-1
Method in brief: as §1

MOLM-13 = tested on: MOLM-13
Method in brief: as §1

MV4-11 [10] = tested on: MV4-11
Method in brief: as §1

KU-812 = tested on: KU-812
Method in brief: as §1

BV-173 [11] = tested on: BV-173
Method in brief: as §1

HL-60 [12] = assay: cell viability (% survival relative to DMSO control); higher = less cytotoxic
Method in brief: (§2)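 For each screen, HL-60 cells in RPMI 1640 with 10% FBS carried either DMSO or 100 nM of one of three metabolic inhibitors while the full library was applied at five tenfold concentrations, 1–10,000 nM, in duplicate. Plates were 384-well and were kept 72 h at 37 °C, 5% CO2. Viability, measured by CellTiter-Glo, was normalised to wells with DMSO and with 10 μM proteasome inhibitor. Where area under the curve appears, it was fitted by four-parameter log-logistic models in drc and PharmacoGx.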

HL-60 [13] = assay: area under dose-response curve (viability, 1 nM-10 uM) (fraction (0-1)); higher = more sensitive
Method in brief: as §2

ML-2 [14] = assay: cell viability (% survival relative to DMSO control, bortezomib = 0%); higher = less cytotoxic
Method in brief: (§3)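 Percent survival figures are means of duplicate wells. They were obtained by CellTiter-Glo luminescence after 10 AML and 5 CML cell lines spent 72 h at 37 °C with 5% CO2 in 384-well plates with compounds at 1, 10, 100, 1000 or 10000 nM. Vehicle was set to 100% and a 10 µM positive control to 0%.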

K-562 [15] = assay: as above
Method in brief: as §3

Mono-Mac-6 [16] = assay: as above
Method in brief: as §3

HEL [17] = assay: as above
Method in brief: as §3

HL-60 [18] = assay: as above
Method in brief: as §3

LAMA-84 [19] = assay: as above
Method in brief: as §3

KCL-22 [20] = assay: as above
Method in brief: as §3

KG-1 [21] = assay: as above
Method in brief: as §3

SHI-1 [22] = assay: as above
Method in brief: as §3

MV4-11 [23] = assay: as above
Method in brief: as §3

BV-173 [24] = assay: as above
Method in brief: as §3

Cc1nnc(-c2ccc(N3CCC(Oc4ccccc4C(F)(F)F)CC3)nn2)s1 [MF-438]
Settings	IC50 (cell viability)
BV-173 [11]	> 10 µM
HEL [4]	> 10 µM
HL-60 [5]	> 10 µM
K-562 [2]	47.2 nM
KCL-22 [7]	2290 nM
KG-1 [8]	> 10 µM
KU-812	> 10 µM
LAMA-84 [6]	> 10 µM
ML-2 [1]	> 10 µM
MOLM-13	68.7 nM
MV4-11 [10]	9.32 µM
Mono-Mac-6 [3]	> 10 µM
NOMO-1	> 10 µM
SHI-1 [9]	> 10 µM
THP-1	> 10 µM

cell viability [%], HL-60 [12]
Settings	0.001 µM	0.01 µM	0.1 µM	1 µM	10 µM
co-treatment: AZD3965 100 nM	88.9 ± 8.7	99.9 ± 1.6	104 ± 2.1	101 ± 0.18	89.8 ± 4.6
co-treatment: DMSO vehicle	101 ± 14	101.6 ± 0.88	102 ± 4	100 ± 3.9	94.9 ± 1.6
co-treatment: GSK2194069 100 nM	92.9 ± 23	104 ± 5.6	93.3 ± 0.56	101 ± 3.9	86.5 ± 1.9
co-treatment: pictilisib 100 nM	109 ± 2.6	106 ± 2.9	100 ± 1.9	94.07 ± 0.88	98.1 ± 7.1

Settings	area under dose-response curve, co-treatment: AZD3965 100 nM	area under dose-response curve, co-treatment: DMSO vehicle	area under dose-response curve, co-treatment: GSK2194069 100 nM	area under dose-response curve, co-treatment: pictilisib 100 nM	cell viability, 1 nM [%]	cell viability, 10 nM [%]	cell viability, 100 nM [%]	cell viability, 1000 nM [%]	cell viability, 10000 nM [%]
BV-173 [24]	–	–	–	–	96.1	108	89.4	137	99.4
HEL [17]	–	–	–	–	102	91.9	106	122	106
HL-60 [13]	< 0.0301	< 0.0301	< 0.0301	< 0.0301	–	–	–	–	–
HL-60 [18]	–	–	–	–	93.6	92.5	87	127	56.5
K-562 [15]	–	–	–	–	97	103	32.4	38.2	38.1
KCL-22 [20]	–	–	–	–	103	99.6	69	61.3	49.5
KG-1 [21]	–	–	–	–	62.5	133	94.3	115	106
LAMA-84 [19]	–	–	–	–	93.4	85.4	88	76.9	92.6
ML-2 [14]	–	–	–	–	96	114	98.6	117	88.3
MV4-11 [23]	–	–	–	–	91	109	91.2	99.2	45.3
Mono-Mac-6 [16]	–	–	–	–	101	100	95.5	99	103
SHI-1 [22]	–	–	–	–	98.9	98.2	102	113	80.9

CC(C)c1ccc2c(c1)c(SC(C)(C)C)c(CC(C)(C)C(=O)O)n2Cc1ccc(Cl)cc1 [MK-886]
Settings	IC50 (cell viability)
BV-173 [11]	> 10 µM
HEL [4]	> 10 µM
HL-60 [5]	> 10 µM
K-562 [2]	> 10000 nM
KCL-22 [7]	4260 nM
KG-1 [8]	> 10 µM
KU-812	> 10 µM
LAMA-84 [6]	> 10 µM
ML-2 [1]	> 10 µM
MOLM-13	> 10000 nM
MV4-11 [10]	> 10 µM
Mono-Mac-6 [3]	> 10 µM
NOMO-1	> 10 µM
SHI-1 [9]	> 10 µM
THP-1	> 10 µM

cell viability [%], HL-60 [12]
Settings	0.001 µM	0.01 µM	0.1 µM	1 µM	10 µM
co-treatment: AZD3965 100 nM	105 ± 4.8	95.8 ± 12	108 ± 7.9	99.8 ± 2	102 ± 3.9
co-treatment: DMSO vehicle	103 ± 0.78	99.9 ± 1.5	104.5 ± 0.84	107 ± 2.3	109.9 ± 1
co-treatment: GSK2194069 100 nM	104 ± 2.2	98.8 ± 5.2	105 ± 13	97.5 ± 1.7	94.4 ± 7.3
co-treatment: pictilisib 100 nM	105 ± 12	98.1 ± 1.9	109 ± 11	98.9 ± 5.2	108 ± 2.2

Settings	area under dose-response curve, co-treatment: AZD3965 100 nM	area under dose-response curve, co-treatment: DMSO vehicle	area under dose-response curve, co-treatment: GSK2194069 100 nM	area under dose-response curve, co-treatment: pictilisib 100 nM	cell viability, 1 nM [%]	cell viability, 10 nM [%]	cell viability, 100 nM [%]	cell viability, 1000 nM [%]	cell viability, 10000 nM [%]
BV-173 [24]	–	–	–	–	121	89.6	114	103	94.9
HEL [17]	–	–	–	–	110	112	99.2	95.3	82.7
HL-60 [13]	< 0.0301	< 0.0301	< 0.0301	< 0.0301	–	–	–	–	–
HL-60 [18]	–	–	–	–	108	103	94.8	93.7	124
K-562 [15]	–	–	–	–	109	97	101	100	106
KCL-22 [20]	–	–	–	–	108	110	105	89.7	39.1
KG-1 [21]	–	–	–	–	111	102	89.4	93.8	91.5
LAMA-84 [19]	–	–	–	–	96.6	101	97.2	100	115
ML-2 [14]	–	–	–	–	132	107	95.3	95.8	67.8
MV4-11 [23]	–	–	–	–	107	109	96.9	94.5	96.5
Mono-Mac-6 [16]	–	–	–	–	111	109	91.5	101	108
SHI-1 [22]	–	–	–	–	108	110	104	93.2	98.3

O=C(CCl)N(CCCNC(=O)C(F)(F)F)c1ccc([N+](=O)[O-])cc1 [ML175]
Settings	IC50 (cell viability)
BV-173 [11]	0.32 µM
HEL [4]	0.297 µM
HL-60 [5]	2.13 µM
K-562 [2]	2950 nM
KCL-22 [7]	2070 nM
KG-1 [8]	0.341 µM
KU-812	2.23 µM
LAMA-84 [6]	2.54 µM
ML-2 [1]	0.288 µM
MOLM-13	276 nM
MV4-11 [10]	0.309 µM
Mono-Mac-6 [3]	0.896 µM
NOMO-1	0.305 µM
SHI-1 [9]	3.41 µM
THP-1	2.77 µM

cell viability [%], HL-60 [12]
Settings	0.001 µM	0.01 µM	0.1 µM	1 µM	10 µM
co-treatment: AZD3965 100 nM	103 ± 2.1	100 ± 1.6	102.27 ± 0.062	104 ± 5.7	0.129 ± 0.42
co-treatment: DMSO vehicle	104 ± 5.9	103 ± 1.5	99.79 ± 0.16	99.8 ± 6	-1.45 ± 0.48
co-treatment: GSK2194069 100 nM	100 ± 1.6	92.97 ± 0.7	98.3 ± 4.5	95.2 ± 5.3	-1.73 ± 0.33
co-treatment: pictilisib 100 nM	101 ± 6.9	94.4 ± 3.7	98.5 ± 3.1	95.1 ± 3.8	1.1 ± 1.7

Settings	area under dose-response curve, co-treatment: AZD3965 100 nM	area under dose-response curve, co-treatment: DMSO vehicle	area under dose-response curve, co-treatment: GSK2194069 100 nM	area under dose-response curve, co-treatment: pictilisib 100 nM	cell viability, 1 nM [%]	cell viability, 10 nM [%]	cell viability, 100 nM [%]	cell viability, 1000 nM [%]	cell viability, 10000 nM [%]
BV-173 [24]	–	–	–	–	122	99.9	101	-0.0318	-0.742
HEL [17]	–	–	–	–	105	106	96.3	-0.0497	-0.423
HL-60 [13]	0.125	0.133	0.14	0.136	–	–	–	–	–
HL-60 [18]	–	–	–	–	104	111	110	83.4	-1.03
K-562 [15]	–	–	–	–	101	91.9	99.6	95.7	-0.364
KCL-22 [20]	–	–	–	–	113	118	85	82.5	-0.718
KG-1 [21]	–	–	–	–	109	109	96.8	6.67	-0.879
LAMA-84 [19]	–	–	–	–	107	106	90.5	89.9	-0.333
ML-2 [14]	–	–	–	–	97	102	94.5	0.519	-0.998
MV4-11 [23]	–	–	–	–	93.6	93	95.6	-0.18	-0.931
Mono-Mac-6 [16]	–	–	–	–	101	104	98.2	44.6	-1.09
SHI-1 [22]	–	–	–	–	95	127	85.1	107	-0.834
